Experimental findings from patent US8163790B2, “Metronidazole cocrystals and imipramine cocrystals” (New Form Pharmaceuticals, Inc., priority 2005, dated 2012) are described below.

The conditions of data set [1]: water at 23° C., 900 mL, 100 rpm.
For data set [2] the following is noted: intrinsic dissolution, 900 mL, 100 rpm, 0.50 cm^2; media 34 mM aqueous NaCl, water at 37° C., water at ambient temperature (medium of the value not stated); relative to imipramine HCl.
Data set [3] can be described thus: Intrinsic dissolution of metronidazole:gallic acid cocrystal (Woods apparatus, UV 318 nm). Type of data set: physicochemical. Particulars: water at 37° C., 900 mL, 100 rpm, 0.50 cm^2, relative to metronidazole. How it is done: Samples of metronidazole and the metronidazole cocrystal were compressed at 1000 psi for approximately one minute. […] A dissolution medium of water was used at 37° C. […] Metronidazole and the metronidazole:gallic acid cocrystal solutions were analyzed with a Cary 50 UV-VIS single-beam spectrophotometer without dilution at room temperature in a 1.000 cm quartz cuvette. […] Wavelength calibration was performed using holmium oxide.

Consider `CN(C)CCCN1c2ccccc2CCc2ccccc21.Cl.O=C(O)c1ccc2ccccc2c1O`, for which, in data set [1] (at 300 minutes), the “imipramine HCl dissolved from the cocrystal” value is reported as “less than 0.0063 mg/mL”. Also, the “dissolution rate compared with imipramine HCl (in words)” value in data set [1] (intrinsic dissolution, rate too slow to quantify accurately) is given as “much slower rate”.

Turning to `CN(C)CCCN1c2ccccc2CCc2ccccc21.Cl` [imipramine HCl, Imipramine hydrochloride, reference compound], the “imipramine dissolved from imipramine HCl” value in data set [1] (in two minutes) amounted to 0.013 mg/mL.

Consider `CN(C)CCCN1c2ccccc2CCc2ccccc21.CN(C)CCCN1c2ccccc2CCc2ccccc21.Cl.Cl.O=C(O)C=CC(=O)O` [imipramine HCl:fumaric acid cocrystal], for which the “dissolution rate of the cocrystal as % of the rate of imipramine HCl” value in data set [2] was “about 58%”.

For `Cc1ncc([N+](=O)[O-])n1CCO.O=C(O)c1cc(O)c(O)c(O)c1` [metronidazole:gallic acid cocrystal], in data set [3], the “dissolution rate of the cocrystal as % of the rate of metronidazole” value was “about 22%”.
